Test results as given in PubChem BioAssay (NCI).
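Results reflect a 48-hour exposure of cells in 96-well plates to compound at five concentrations. GI50 = concentration required for 50% inhibition of growth. TGI marks complete inhibition of growth.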

Experiments:
Experiment in all cases: NCI tumour cell line growth inhibition, 48 h
DMS 273 small cell lung = system: DMS 273 small cell lung
A549 NSCLC = system: A549 NSCLC
SNB-75 CNS = system: SNB-75 CNS
DLD-1 colon = system: DLD-1 colon
UO-31 renal = system: UO-31 renal
UACC-257 melanoma = system: UACC-257 melanoma
MOLT-4 leukemia = system: MOLT-4 leukemia
HOP-18 NSCLC = system: HOP-18 NSCLC
LOX IMVI melanoma = system: LOX IMVI melanoma
NCI-H460 lung = system: NCI-H460 lung
IGROV1 ovarian = system: IGROV1 ovarian
HCT-15 colon = system: HCT-15 colon
SF-539 CNS = system: SF-539 CNS
M19-MEL melanoma = system: M19-MEL melanoma
ACHN renal = system: ACHN renal
HT29 colon = system: HT29 colon
MALME-3M melanoma = system: MALME-3M melanoma
KM12 colon = system: KM12 colon
SN12C renal = system: SN12C renal
SNB-19 CNS = system: SNB-19 CNS
UACC-62 melanoma = system: UACC-62 melanoma
LXFL 529 NSCLC = system: LXFL 529 NSCLC
NCI-H226 lung = system: NCI-H226 lung
SK-MEL-2 melanoma = system: SK-MEL-2 melanoma
SF-295 CNS = system: SF-295 CNS
HCT-116 colon = system: HCT-116 colon
TK-10 renal = system: TK-10 renal
RXF 393 renal = system: RXF 393 renal
SK-MEL-5 melanoma = system: SK-MEL-5 melanoma
OVCAR-3 ovarian = system: OVCAR-3 ovarian
SK-OV-3 ovarian = system: SK-OV-3 ovarian
SNB-78 CNS = system: SNB-78 CNS
OVCAR-4 ovarian = system: OVCAR-4 ovarian
DMS 114 small cell lung = system: DMS 114 small cell lung
NCI-H23 lung = system: NCI-H23 lung
XF 498 CNS = system: XF 498 CNS
SK-MEL-28 melanoma = system: SK-MEL-28 melanoma
SF-268 CNS = system: SF-268 CNS
NCI-H522 lung = system: NCI-H522 lung
OVCAR-8 ovarian = system: OVCAR-8 ovarian
KM20L2 colon = system: KM20L2 colon
K-562 leukemia = system: K-562 leukemia
U251 CNS = system: U251 CNS
CAKI-1 renal = system: CAKI-1 renal
RPMI-8226 leukemia = system: RPMI-8226 leukemia
HOP-92 NSCLC = system: HOP-92 NSCLC
786-0 renal = system: 786-0 renal
CCRF-CEM leukemia = system: CCRF-CEM leukemia
HOP-62 NSCLC = system: HOP-62 NSCLC
OVCAR-5 ovarian = system: OVCAR-5 ovarian
EKVX NSCLC = system: EKVX NSCLC
HCC-2998 colon = system: HCC-2998 colon
M14 melanoma = system: M14 melanoma
SW-620 colon = system: SW-620 colon
COLO 205 colon = system: COLO 205 colon
SR leukemia = system: SR leukemia
A498 renal = system: A498 renal
HL-60(TB) leukemia = system: HL-60(TB) leukemia

CC(=O)Oc1cc(OC(C)=O)c2c(=O)c3ccccc3[nH]c2c1
TGI (DMS 273 small cell lung): > 100 µM | TGI (A549 NSCLC): > 100 µM | TGI (SNB-75 CNS): 92.8 µM | TGI (DLD-1 colon): > 100 µM | TGI (UO-31 renal): 41.6 µM | TGI (UACC-257 melanoma): 85.1 µM | TGI (MOLT-4 leukemia): > 100 µM | TGI (HOP-18 NSCLC): 51.2 µM | TGI (LOX IMVI melanoma): > 100 µM | TGI (NCI-H460 lung): > 100 µM | TGI (IGROV1 ovarian): 81.1 µM | TGI (HCT-15 colon): > 100 µM | TGI (SF-539 CNS): 47.1 µM | TGI (M19-MEL melanoma): 86.9 µM | TGI (ACHN renal): > 100 µM | TGI (HT29 colon): > 100 µM | TGI (MALME-3M melanoma): 67.9 µM | TGI (KM12 colon): > 100 µM | TGI (SN12C renal): > 100 µM | TGI (SNB-19 CNS): > 100 µM | TGI (UACC-62 melanoma): > 100 µM | TGI (LXFL 529 NSCLC): > 100 µM | TGI (NCI-H226 lung): 88.9 µM | TGI (SK-MEL-2 melanoma): > 100 µM | TGI (SF-295 CNS): > 100 µM | TGI (HCT-116 colon): > 100 µM | TGI (TK-10 renal): > 100 µM | TGI (RXF 393 renal): > 100 µM | TGI (SK-MEL-5 melanoma): 39.1 µM | TGI (OVCAR-3 ovarian): 83.7 µM | TGI (SK-OV-3 ovarian): 49.5 µM | TGI (SNB-78 CNS): > 100 µM | TGI (OVCAR-4 ovarian): > 100 µM | TGI (DMS 114 small cell lung): > 100 µM | TGI (NCI-H23 lung): > 100 µM | TGI (XF 498 CNS): 51.9 µM | TGI (SK-MEL-28 melanoma): > 100 µM | TGI (SF-268 CNS): > 100 µM | TGI (NCI-H522 lung): 76.6 µM | TGI (OVCAR-8 ovarian): > 100 µM

CN(C)c1ccc(N=Cc2c([O-])ccc3ccccc23)cc1.[C-]#[O+].[C-]#[O+].[Ir]
GI50 (KM20L2 colon): 18.7 µM | TGI (KM20L2 colon): 33.4 µM | GI50 (K-562 leukemia): 37 µM | TGI (K-562 leukemia): > 100 µM | GI50 (A549 NSCLC): 31.8 µM | TGI (A549 NSCLC): 89.3 µM | GI50 (SNB-75 CNS): 19.3 µM | TGI (SNB-75 CNS): 50.4 µM | GI50 (DLD-1 colon): 17.4 µM | TGI (DLD-1 colon): 37.6 µM | GI50 (UO-31 renal): 15.6 µM | TGI (UO-31 renal): 36.4 µM | GI50 (UACC-257 melanoma): 16.3 µM | TGI (UACC-257 melanoma): 37.1 µM | GI50 (U251 CNS): 15.7 µM | TGI (U251 CNS): 30.4 µM | GI50 (MOLT-4 leukemia): 15.4 µM | TGI (MOLT-4 leukemia): 95 µM | GI50 (HOP-18 NSCLC): 13 µM | TGI (HOP-18 NSCLC): 27.6 µM | GI50 (CAKI-1 renal): 22 µM | TGI (CAKI-1 renal): 40.7 µM | GI50 (LOX IMVI melanoma): 15.4 µM | TGI (LOX IMVI melanoma): 30.4 µM | GI50 (IGROV1 ovarian): 21.1 µM | TGI (IGROV1 ovarian): 65 µM | GI50 (SF-539 CNS): 19.9 µM | TGI (SF-539 CNS): 40.7 µM | GI50 (RPMI-8226 leukemia): 23.2 µM | TGI (RPMI-8226 leukemia): > 100 µM | GI50 (M19-MEL melanoma): 16.2 µM | TGI (M19-MEL melanoma): 30.9 µM | GI50 (HOP-92 NSCLC): 17.2 µM | TGI (HOP-92 NSCLC): 37.3 µM | GI50 (ACHN renal): 18.8 µM | TGI (ACHN renal): 43.7 µM | GI50 (786-0 renal): 25.1 µM | TGI (786-0 renal): 65.1 µM | GI50 (HT29 colon): 19.2 µM | TGI (HT29 colon): 40.7 µM | GI50 (CCRF-CEM leukemia): 4.76 µM | TGI (CCRF-CEM leukemia): > 100 µM | GI50 (MALME-3M melanoma): 20.7 µM | TGI (MALME-3M melanoma): 41.7 µM | GI50 (KM12 colon): 18 µM | TGI (KM12 colon): 37.7 µM | GI50 (SN12C renal): 19 µM | TGI (SN12C renal): 35.5 µM | GI50 (SNB-19 CNS): 24.8 µM | TGI (SNB-19 CNS): 64.3 µM | GI50 (UACC-62 melanoma): 17.2 µM | TGI (UACC-62 melanoma): 35.9 µM | GI50 (LXFL 529 NSCLC): 12.5 µM | TGI (LXFL 529 NSCLC): 25.9 µM | GI50 (NCI-H226 lung): 15.2 µM | TGI (NCI-H226 lung): 33.1 µM | GI50 (SF-295 CNS): 20 µM | TGI (SF-295 CNS): 55 µM | GI50 (HCT-116 colon): 17.7 µM | TGI (HCT-116 colon): 32.1 µM | GI50 (TK-10 renal): 22.5 µM | TGI (TK-10 renal): 53.3 µM | GI50 (HOP-62 NSCLC): 44.1 µM | TGI (HOP-62 NSCLC): > 100 µM | GI50 (OVCAR-5 ovarian): 29.1 µM | TGI (OVCAR-5 ovarian): 64.3 µM | GI50 (EKVX NSCLC): 24.9 µM | TGI (EKVX NSCLC): 64.6 µM | GI50 (HCC-2998 colon): 18.8 µM | TGI (HCC-2998 colon): 35.3 µM | GI50 (SK-MEL-5 melanoma): 16.4 µM | TGI (SK-MEL-5 melanoma): 31.2 µM | GI50 (M14 melanoma): 20.7 µM | TGI (M14 melanoma): 46.1 µM | GI50 (OVCAR-3 ovarian): 16.6 µM | TGI (OVCAR-3 ovarian): 32.4 µM | GI50 (SK-OV-3 ovarian): 34.4 µM | TGI (SK-OV-3 ovarian): > 100 µM | GI50 (SW-620 colon): 16.7 µM | TGI (SW-620 colon): 32.5 µM | GI50 (OVCAR-4 ovarian): 12.2 µM | TGI (OVCAR-4 ovarian): 26.1 µM | GI50 (COLO 205 colon): 17.5 µM | TGI (COLO 205 colon): 33.9 µM | GI50 (SR leukemia): 15.4 µM | TGI (SR leukemia): 44.1 µM | GI50 (DMS 114 small cell lung): 10.5 µM | TGI (DMS 114 small cell lung): 22.8 µM | GI50 (NCI-H23 lung): 15.3 µM | TGI (NCI-H23 lung): 36.8 µM | GI50 (XF 498 CNS): 20.5 µM | TGI (XF 498 CNS): 48.4 µM | GI50 (A498 renal): 22.1 µM | TGI (A498 renal): 51.5 µM | GI50 (SF-268 CNS): 22.5 µM | TGI (SF-268 CNS): 50.6 µM | GI50 (NCI-H522 lung): 5.7 µM | TGI (NCI-H522 lung): 18.6 µM | GI50 (OVCAR-8 ovarian): 28.8 µM | TGI (OVCAR-8 ovarian): > 100 µM

COc1cc2c(cc1OC)-c1cc3cc(OC)c(OC)cc3n1CC2
TGI (KM20L2 colon): > 100 µM | TGI (K-562 leukemia): > 100 µM | TGI (A549 NSCLC): > 100 µM | TGI (SNB-75 CNS): 50.5 µM | TGI (DLD-1 colon): > 100 µM | TGI (UO-31 renal): > 100 µM | TGI (UACC-257 melanoma): > 100 µM | TGI (U251 CNS): > 100 µM | TGI (MOLT-4 leukemia): > 100 µM | TGI (CAKI-1 renal): > 100 µM | TGI (NCI-H460 lung): > 100 µM | TGI (IGROV1 ovarian): > 100 µM | TGI (RPMI-8226 leukemia): > 100 µM | TGI (M19-MEL melanoma): > 100 µM | TGI (HOP-92 NSCLC): > 100 µM | TGI (ACHN renal): 85.9 µM | TGI (786-0 renal): 66.6 µM | TGI (HT29 colon): 56.3 µM | TGI (CCRF-CEM leukemia): > 100 µM | TGI (MALME-3M melanoma): 72.6 µM | TGI (KM12 colon): > 100 µM | TGI (SN12C renal): > 100 µM | TGI (SNB-19 CNS): 95.8 µM | TGI (UACC-62 melanoma): > 100 µM | TGI (LXFL 529 NSCLC): > 100 µM | TGI (NCI-H226 lung): 73.5 µM | TGI (SK-MEL-2 melanoma): > 100 µM | TGI (SF-295 CNS): > 100 µM | TGI (HCT-116 colon): > 100 µM | TGI (TK-10 renal): 51.9 µM | TGI (HOP-62 NSCLC): > 100 µM | TGI (OVCAR-5 ovarian): > 100 µM | TGI (EKVX NSCLC): > 100 µM | TGI (HCC-2998 colon): > 100 µM | TGI (HL-60(TB) leukemia): > 100 µM | TGI (M14 melanoma): > 100 µM | TGI (OVCAR-3 ovarian): > 100 µM | TGI (SK-OV-3 ovarian): > 100 µM | TGI (SNB-78 CNS): > 100 µM | TGI (SW-620 colon): > 100 µM | TGI (OVCAR-4 ovarian): > 100 µM | TGI (COLO 205 colon): > 100 µM | TGI (SR leukemia): > 100 µM | TGI (DMS 114 small cell lung): > 100 µM | TGI (NCI-H23 lung): > 100 µM | TGI (XF 498 CNS): 59.7 µM | TGI (SK-MEL-28 melanoma): > 100 µM | TGI (A498 renal): 50.6 µM | TGI (SF-268 CNS): > 100 µM | TGI (NCI-H522 lung): > 100 µM | TGI (OVCAR-8 ovarian): 73.1 µM
